Patent US6737383B1, “Herbicidal oxadiazolidines” (priority 1999, dated 2004)

Tests used:
smallflower flatsedge = assay: Test B flood test smallflower flatsedge; type: in vivo, Cyperus difformis
Procedure, shortened: (§1)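 Each value is a visual injury score relative to controls, with 10 meaning complete control and 0 no effect. Evaluation took place twelve to sixteen days after the 2-leaf-stage plants were treated and kept in the greenhouse.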

pigweed = assay: Test B pre/postemergence pigweed; type: in vivo, Amaranthus retroflexus
Procedure, shortened: (§2)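 Test chemicals in a non-phytotoxic solvent mixture with surfactant were sprayed preemergence onto planted seeds and postemergence onto plants 2 to 18 cm tall (1- to 4-leaf stage). After twelve to sixteen days in a greenhouse, injury was visually rated against untreated controls from 0 (no effect) to 10 (complete control).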

wild oat = assay: Test B pre/postemergence wild oat; type: in vivo, Avena fatua
Procedure, shortened: as §2

purple nutsedge = assay: Test B pre/postemergence purple nutsedge; type: in vivo, Cyperus rotundus
Procedure, shortened: as §2

rice = assay: Test B flood test rice; type: in vivo, Oryza sativa
Procedure, shortened: as §1

blackgrass = assay: Test B pre/postemergence blackgrass; type: in vivo, Alopecurus myosuroides
Procedure, shortened: as §2

morningglory = assay: Test B pre/postemergence morningglory; type: in vivo, Ipomoea hederacea
Procedure, shortened: as §2

bamyardgrass = assay: Test B flood test barnyardgrass; type: in vivo, Echinochloa crus-galli
Procedure, shortened: as §1

crabgrass = assay: Test B pre/postemergence crabgrass; type: in vivo, Digitaria sanguinalis
Procedure, shortened: as §2

cocklebur = assay: Test B pre/postemergence cocklebur; type: in vivo, Xanthium strumarium
Procedure, shortened: as §2

velvetleaf = assay: Test B pre/postemergence velvetleaf; type: in vivo, Abutilon theophrasti
Procedure, shortened: as §2

rape = assay: Test B pre/postemergence rape; type: in vivo, Brassica napus
Procedure, shortened: as §2

duck salad = assay: Test B flood test duck salad; type: in vivo, Heteranthera limosa
Procedure, shortened: as §1

wheat = assay: Test B pre/postemergence wheat; type: in vivo, Triticum aestivum
Procedure, shortened: as §2

corn = assay: Test B pre/postemergence corn; type: in vivo, Zea mays
Procedure, shortened: as §2

sugar beet = assay: Test B pre/postemergence sugar beet; type: in vivo, Beta vulgaris
Procedure, shortened: as §2

[1] = Pre-emergence, Rate 1000 g/ha, scale 0 to 10 (0 no effect, 10 complete control)
[2] = Rate 125 g/ha, under heading Pre-emergence, flood test species, visual evaluation after twelve to sixteen days
[3] = Rate 250 g/ha, Pre-emergence (flood test species), scale 0 to 10, 0 is no effect, 10 is complete control
[4] = Rate 500 g/ha, Pre-emergence section of Table B, 0 to 10 scale (0 no effect, 10 complete control)
[5] = Postemergence, Rate 125 g/ha, scale of 0 to 10 where 0 is no effect and 10 is complete control
[6] = Postemergence, Rate 250 g/ha, scale of 0 to 10, 0 is no effect, 10 is complete control
[7] = Postemergence, Rate 1000 g/ha, scale 0 to 10 (0 no effect, 10 complete control)
[8] = Preemergence, Rate 125 g/ha, scale of 0 to 10 where 0 is no effect and 10 is complete control
[9] = Preemergence, Rate 250 g/ha, scale 0 to 10 (0 no effect, 10 complete control)
[10] = Preemergence, Rate 500 g/ha, scale of 0 to 10 where 0 is no effect and 10 is complete control
[11] = Rate 1000 g/ha, Preemergence, scale 0 to 10 (0 no effect, 10 complete control)
[12] = Postemergence, Rate 500 g/ha, scale of 0 to 10 where 0 is no effect and 10 is complete control

Structure (SMILES): CCOP(=O)(OCC)C(C)n1c(=O)on(C(=O)N(c2ccc(F)cc2)C(C)C)c1=O (stereo not drawn) [Compound 617]
- S. Flatsedge plant response rating (smallflower flatsedge; [1]): 0
- S. Flatsedge plant response rating (0 to 10 scale, 0 is no effect, 10 is complete control) (smallflower flatsedge; [2]): 0
- S. Flatsedge plant response rating (smallflower flatsedge; [3]): 0
- S. Flatsedge plant response rating (smallflower flatsedge; [4]): 0
- Plant response rating, Redroot pigweed (pigweed; [5]): 0
- Redroot pigweed plant response rating (pigweed; [6]): 0
- Redroot pigweed plant response rating (pigweed; [7]): 0
- Redroot pigweed plant response rating (pigweed; [8]): 0
- Plant response rating, Redroot pigweed (pigweed; [9]): 0
- Plant response rating, Redroot pigweed (pigweed; [10]): 0
- Plant response rating, Redroot pigweed (pigweed; [11]): 0
- Plant response rating, Wild oats (wild oat; [5]): 0
- Wild oats plant response rating (wild oat; [6]): 0
- Wild oats plant response rating (wild oat; [7]): 0
- Wild oats plant response rating (wild oat; [8]): 0
- Plant response rating, Wild oats (wild oat; [9]): 2
- Plant response rating, Wild oats (wild oat; [10]): 3
- Plant response rating, Wild oats (wild oat; [11]): 9
- Plant response rating, Nutsedge (purple nutsedge; [5]): 0
- Plant response rating, Nutsedge (purple nutsedge; [12]): 0
- Nutsedge plant response rating (purple nutsedge; [7]): 0
- Nutsedge plant response rating (purple nutsedge; [8]): 0
- Plant response rating, Nutsedge (purple nutsedge; [9]): 0
- Plant response rating, Nutsedge (purple nutsedge; [10]): 5
- Plant response rating, Nutsedge (purple nutsedge; [11]): 8
- Rice plant response rating (rice; [1]): 0
- Rice plant response rating (0 to 10 scale, 0 is no effect, 10 is complete control) (rice; [2]): 0
- Rice plant response rating (rice; [3]): 0
- Rice plant response rating (rice; [4]): 0
- Plant response rating, Blackgrass (blackgrass; [5]): 0
- Blackgrass plant response rating (blackgrass; [6]): 0
- Plant response rating, Blackgrass (blackgrass; [12]): 0
- Blackgrass plant response rating (blackgrass; [7]): 6
- Blackgrass plant response rating (blackgrass; [8]): 0
- Plant response rating, Blackgrass (blackgrass; [9]): 6
- Blackgrass plant response rating (blackgrass; [10]): 6
- Plant response rating, Blackgrass (blackgrass; [11]): 10
- Plant response rating, Morningglory (morningglory; [5]): 0
- Morningglory plant response rating (morningglory; [6]): 0
- Plant response rating, Morningglory (morningglory; [12]): 3
- Morningglory plant response rating (morningglory; [7]): 6
- Morningglory plant response rating (morningglory; [8]): 0
- Plant response rating, Morningglory (morningglory; [9]): 0
- Plant response rating, Morningglory (morningglory; [10]): 0
- Plant response rating, Morningglory (morningglory; [11]): 0
- Barnyardgrass plant response rating (bamyardgrass; [1]): 0
- Barnyardgrass plant response rating (0 to 10 scale, 0 is no effect, 10 is complete control) (bamyardgrass; [2]): 0
- Barnyardgrass plant response rating (bamyardgrass; [3]): 0
- Barnyardgrass plant response rating (bamyardgrass; [4]): 0
- Plant response rating, Crabgrass (crabgrass; [5]): 0
- Crabgrass plant response rating (crabgrass; [6]): 2
- Plant response rating, Crabgrass (crabgrass; [12]): 0
- Crabgrass plant response rating (crabgrass; [7]): 7
- Plant response rating, Crabgrass (crabgrass; [9]): 5
- Plant response rating, Crabgrass (crabgrass; [10]): 8
- Plant response rating, Crabgrass (crabgrass; [11]): 8
- Plant response rating, Cocklebur (cocklebur; [5]): 0
- Cocklebur plant response rating (cocklebur; [6]): 0
- Plant response rating, Cocklebur (cocklebur; [12]): 2
- Cocklebur plant response rating (cocklebur; [7]): 3
- Cocklebur plant response rating (cocklebur; [8]): 0
- Plant response rating, Cocklebur (cocklebur; [9]): 0
- Plant response rating, Cocklebur (cocklebur; [10]): 0
- Plant response rating, Cocklebur (cocklebur; [11]): 0
- Plant response rating, Velvetleaf (velvetleaf; [5]): 0
- Velvetleaf plant response rating (velvetleaf; [6]): 0
- Velvetleaf plant response rating (velvetleaf; [7]): 2
- Velvetleaf plant response rating (velvetleaf; [8]): 0
- Plant response rating, Velvetleaf (velvetleaf; [9]): 0
- Plant response rating, Velvetleaf (velvetleaf; [10]): 0
- Plant response rating, Velvetleaf (velvetleaf; [11]): 0
- Plant response rating, Rape (rape; [5]): 0
- Rape plant response rating (rape; [6]): 0
- Plant response rating, Rape (rape; [12]): 0
- Rape plant response rating (rape; [7]): 0
- Rape plant response rating (rape; [8]): 0
- Plant response rating, Rape (rape; [9]): 0
- Plant response rating, Rape (rape; [10]): 0
- Plant response rating, Rape (rape; [11]): 0
- Ducksalad plant response rating (duck salad; [1]): 0
- Ducksalad plant response rating (0 to 10 scale, 0 is no effect, 10 is complete control) (duck salad; [2]): 0
- Ducksalad plant response rating (duck salad; [3]): 0
- Ducksalad plant response rating (duck salad; [4]): 0
- Plant response rating, Wheat (wheat; [5]): 0
- Wheat plant response rating (wheat; [6]): 0
- Wheat plant response rating (wheat; [7]): 0
- Wheat plant response rating (wheat; [8]): 0
- Plant response rating, Wheat (wheat; [9]): 0
- Plant response rating, Wheat (wheat; [10]): 0
- Plant response rating, Wheat (wheat; [11]): 2
- Plant response rating, Corn (corn; [5]): 0
- Corn plant response rating (corn; [6]): 0
- Plant response rating, Corn (corn; [12]): 0
- Corn plant response rating (corn; [7]): 0
- Corn plant response rating (corn; [8]): 0
- Plant response rating, Corn (corn; [9]): 0
- Plant response rating, Corn (corn; [10]): 0
- Plant response rating, Corn (corn; [11]): 0
- Plant response rating, Sugarbeets (sugar beet; [5]): 0
- Sugarbeets plant response rating (sugar beet; [6]): 0
- Sugarbeets plant response rating (sugar beet; [7]): 0
- Sugarbeets plant response rating (sugar beet; [8]): 0
- Plant response rating, Sugarbeets (sugar beet; [9]): 0
- Plant response rating, Sugarbeets (sugar beet; [10]): 0
- Plant response rating, Sugarbeets (sugar beet; [11]): 0
